Source: patent publication US11006631B2, “Substituted pyrimidinyloxy pyridine derivatives as herbicides” (FMC Corporation, priority 2015, dated 2021)

What was measured:
Type in all cases: in vivo
[1] = test system: barnyardgrass (Echinochloa crus-galli); assay: Test A preemergence, barnyardgrass; settings: 0 to 100 scale
Source text: (§1) Seeds of plant species selected from bamyardgrass (Echinochloa crus-galli), kochia (Kochia scoparia), ragweed (common ragweed, Ambrosia elatior), ryegrass, Italian (Italian ryegrass, Lolium multiflorum), foxtail, giant (giant foxtail, Setaria faberii), pigweed (Amaranthus retroflexus), crabgrass, large (large crabgrass, Digitaria sanguinalis), momingglory (Ipomoea spp.), velvetleaf (Abutilon theophrasti), wheat (Triticum aestivum), and corn (Zea mays) were planted into a blend of loam soil and sand and treated preemergence with a directed soil spray using test chemicals formulated in a non-phytotoxic solvent mixture which included a surfactant. At the same time, plants selected from these crop and weed species and also blackgrass (Alopecurus myosuroides), and galium (catchweed bedstraw, Galium aparine) were planted in pots containing the same blend of loam soil and sand and treated with postemergence applications of test chemicals formulated in the same manner. Plants ranged in height from 2 to 10 cm and were in the one- to two-leaf stage for the postemergence treatment. Treated plants and untreated controls were maintained in a greenhouse for approximately 10 days, after which time all treated plants were compared to untreated controls and visually evaluated for injury. Plant response ratings, summarized in Table A, are based on a 0 to 100 scale where 0 is no effect and 100 is complete control. A dash (-) response means no test result.

[2] = test system: kochia (Kochia scoparia); assay: Test A preemergence, kochia; settings: 0 to 100 scale
Source text: as §1

[3] = test system: ragweed (common ragweed, Ambrosia elatior); assay: Test A preemergence, ragweed; settings: 0 to 100 scale
Source text: as §1

[4] = test system: ryegrass, Italian (Italian ryegrass, Lolium multiflorum); assay: Test A preemergence, ryegrass, Italian; settings: 0 to 100 scale
Source text: as §1

[5] = test system: foxtail, giant (giant foxtail, Setaria faberii); assay: Test A preemergence, foxtail, giant; settings: 0 to 100 scale
Source text: as §1

[6] = test system: pigweed (Amaranthus retroflexus); assay: Test A preemergence, pigweed; settings: 0 to 100 scale
Source text: as §1

[7] = test system: barnyardgrass (Echinochloa crus-galli); assay: Test A postemergence, barnyardgrass; settings: 0 to 100 scale
Source text: as §1

[8] = test system: kochia (Kochia scoparia); assay: Test A postemergence, kochia; settings: 0 to 100 scale
Source text: as §1

[9] = test system: ragweed (common ragweed, Ambrosia elatior); assay: Test A postemergence, ragweed; settings: 0 to 100 scale
Source text: as §1

[10] = test system: ryegrass, Italian (Italian ryegrass, Lolium multiflorum); assay: Test A postemergence, ryegrass, Italian; settings: 0 to 100 scale
Source text: as §1

[11] = test system: foxtail, giant (giant foxtail, Setaria faberii); assay: Test A postemergence, foxtail, giant; settings: 0 to 100 scale
Source text: as §1

[12] = test system: pigweed (Amaranthus retroflexus); assay: Test A postemergence, pigweed; settings: 0 to 100 scale
Source text: as §1

[13] = test system: wheat (Triticum aestivum); assay: Test A postemergence, wheat; settings: 0 to 100 scale
Source text: as §1

[14] = test system: corn (Zea mays); assay: Test A postemergence, corn; settings: 0 to 100 scale
Source text: as §1

[15] = test system: blackgrass (Alopecurus myosuroides); assay: Test A postemergence, blackgrass; settings: 0 to 100 scale
Source text: as §1

[16] = test system: galium (catchweed bedstraw, Galium aparine); assay: Test A postemergence, galium; settings: 0 to 100 scale
Source text: as §1

[17] = test system: rice (Oryza sativa); assay: Test B flooded paddy test, rice; settings: Flood, 250 g ai/ha; scale of 0 to 100
Method: (§2) Plant species in the flooded paddy test selected from rice (Oryza sativa), sedge, umbrella (small-flower umbrella sedge, Cyperus difformis), ducksalad (Heteranthera limosa), and barnyardgrass (Echinochloa crus-galli) were grown to the 2-leaf stage for testing. At time of treatment, test pots were flooded to 3 cm above the soil surface, treated by application of test compounds directly to the paddy water, and then maintained at that water depth for the duration of the test. Treated plants and controls were maintained in a greenhouse for 13 to 15 days, after which time all species were compared to controls and visually evaluated. Plant response ratings, summarized in Table B, are based on a scale of 0 to 100 where 0 is no effect and 100 is complete control. A dash (-) response means no test result.

[18] = test system: sedge, umbrella (small-flower umbrella sedge, Cyperus difformis); assay: Test B flooded paddy test, sedge, umbrella; settings: Flood, 250 g ai/ha; scale of 0 to 100
Method: as §2

[19] = test system: ducksalad (Heteranthera limosa); assay: Test B flooded paddy test, ducksalad; settings: Flood, 250 g ai/ha; scale of 0 to 100
Method: as §2

[20] = test system: barnyardgrass (Echinochloa crus-galli); assay: Test B flooded paddy test, barnyardgrass; settings: Flood, 250 g ai/ha; scale of 0 to 100
Method: as §2

SMILES	Plant response rating, Barnyardgrass ([1]; 125 g ai/ha)	Plant response rating, Kochia ([2]; 125 g ai/ha)	Plant response rating, Ragweed ([3]; 125 g ai/ha)	Plant response rating, Ryegrass, Italian ([4]; 125 g ai/ha)	Plant response rating, Foxtail, Giant ([5]; 125 g ai/ha)	Plant response rating, Pigweed ([6]; 125 g ai/ha)	Plant response rating, Barnyardgrass ([7]; 125 g ai/ha)	Plant response rating, Kochia ([8]; 125 g ai/ha)	Plant response rating, Ragweed ([9]; 125 g ai/ha)	Plant response rating, Ryegrass, Italian ([10]; 125 g ai/ha)	Plant response rating, Foxtail, Giant ([11]; 125 g ai/ha)	Plant response rating, Pigweed ([12]; 125 g ai/ha)	Plant response rating, Wheat ([13]; 125 g ai/ha)	Plant response rating, Corn ([14]; 125 g ai/ha)	Plant response rating, Blackgrass ([15]; 125 g ai/ha)	Plant response rating, Galium ([16]; 125 g ai/ha)	Plant response rating, Rice [17]	Plant response rating, Sedge, Umbrella [18]	Plant response rating, Ducksalad [19]	Plant response rating, Barnyardgrass [20]	also measured
FC(F)(F)c1cc(-c2ncccc2Oc2ncc(Cl)cn2)ccn1 [Compound 14]	40	100	0	10	90	100	40	80	10	30	60	100	0	20	10	50	0	50	40	0	Plant response rating, Barnyardgrass ([1]; 500 g ai/ha): 100; Plant response rating, Kochia ([2]; 500 g ai/ha): 100; Plant response rating, Ragweed ([3]; 500 g ai/ha): 20; Plant response rating, Ryegrass, Italian ([4]; 500 g ai/ha): 20; Plant response rating, Foxtail, Giant ([5]; 500 g ai/ha): 100; Plant response rating, Pigweed ([6]; 500 g ai/ha): 100; Plant response rating, Barnyardgrass ([7]; 500 g ai/ha): 60; Plant response rating, Kochia ([8]; 500 g ai/ha): 100; Plant response rating, Ragweed ([9]; 500 g ai/ha): 30; Plant response rating, Ryegrass, Italian ([10]; 500 g ai/ha): 40; Plant response rating, Foxtail, Giant ([11]; 500 g ai/ha): 90; Plant response rating, Pigweed ([12]; 500 g ai/ha): 100; Plant response rating, Wheat ([13]; 500 g ai/ha): 10; Plant response rating, Corn ([14]; 500 g ai/ha): 40; Plant response rating, Blackgrass ([15]; 500 g ai/ha): 90; Plant response rating, Galium ([16]; 500 g ai/ha): 90
[O-][n+]1cccc(Oc2ncc(Cl)cn2)c1-c1cc(C(F)F)on1 [Compound 8, 5-chloro-2-[[2-[5-(difluoromethyl)-3-isoxazolyl]-1-oxido-3-pyridinyl]oxy]pyrimidine]	0	40	0	0	10	90	10	70	50	0	10	70	20	20	10	60	0	0	40	0	Plant response rating, Barnyardgrass ([1]; 31 g ai/ha): 0; Plant response rating, Kochia ([2]; 31 g ai/ha): 0; Plant response rating, Ragweed ([3]; 31 g ai/ha): 0; Plant response rating, Ryegrass, Italian ([4]; 31 g ai/ha): 0; Plant response rating, Foxtail, Giant ([5]; 31 g ai/ha): 0; Plant response rating, Pigweed ([6]; 31 g ai/ha): 40; Plant response rating, Barnyardgrass ([7]; 31 g ai/ha): 0; Plant response rating, Kochia ([8]; 31 g ai/ha): 40; Plant response rating, Ragweed ([9]; 31 g ai/ha): 30; Plant response rating, Ryegrass, Italian ([10]; 31 g ai/ha): 0; Plant response rating, Foxtail, Giant ([11]; 31 g ai/ha): 0; Plant response rating, Pigweed ([12]; 31 g ai/ha): 50; Plant response rating, Wheat ([13]; 31 g ai/ha): 10; Plant response rating, Corn ([14]; 31 g ai/ha): 0; Plant response rating, Blackgrass ([15]; 31 g ai/ha): 0; Plant response rating, Galium ([16]; 31 g ai/ha): 40
Fc1cnc(Oc2cccnc2-c2cc(C(F)F)no2)nc1 [Compound 7]	20	70	30	0	20	100	0	90	10	0	0	70	20	0	0	50	0	0	50	0	Plant response rating, Barnyardgrass ([1]; 31 g ai/ha): 0; Plant response rating, Kochia ([2]; 31 g ai/ha): 20; Plant response rating, Ragweed ([3]; 31 g ai/ha): 0; Plant response rating, Ryegrass, Italian ([4]; 31 g ai/ha): 0; Plant response rating, Foxtail, Giant ([5]; 31 g ai/ha): 0; Plant response rating, Pigweed ([6]; 31 g ai/ha): 70; Plant response rating, Barnyardgrass ([7]; 31 g ai/ha): 0; Plant response rating, Kochia ([8]; 31 g ai/ha): 70; Plant response rating, Ragweed ([9]; 31 g ai/ha): 0; Plant response rating, Ryegrass, Italian ([10]; 31 g ai/ha): 0; Plant response rating, Foxtail, Giant ([11]; 31 g ai/ha): 0; Plant response rating, Pigweed ([12]; 31 g ai/ha): 20; Plant response rating, Wheat ([13]; 31 g ai/ha): 0; Plant response rating, Corn ([14]; 31 g ai/ha): 0; Plant response rating, Blackgrass ([15]; 31 g ai/ha): 0; Plant response rating, Galium ([16]; 31 g ai/ha): 20
